# According to patent US20230043198A1, “MICROBIOTA METABOLITES THAT SHAPE HOST PHYSIOLOGY” (Yale University, priority 2018, published 2023):
# Like-named read-outs stand apart in the source and are kept apart here.
# How the values were obtained:
# GPR56/AGRG1 = GPR56/AGRG1 (Homo sapiens, UniProt Q9Y653); assay: GPR56 PRESTO-Tango; conditions: titrating doses of pure amino acid
# DRD3 = DRD3 (Homo sapiens, UniProt P35462); assay: DRD3 PRESTO-Tango; assay type: cell-based; conditions: pure ligand
# [1] = in vivo; cited from earlier work
# DRD2 [2] = biological target: T1, DRD2 (Homo sapiens, UniProt P14416); assay: DRD2 PRESTO-Tango; assay type: cell-based; conditions: pure ligand
# DRD4 = biological target: T2, DRD4 (Homo sapiens, UniProt P21917); assay: DRD4 PRESTO-Tango; assay type: cell-based; conditions: pure ligand
# T2 sequence (P21917 1-419): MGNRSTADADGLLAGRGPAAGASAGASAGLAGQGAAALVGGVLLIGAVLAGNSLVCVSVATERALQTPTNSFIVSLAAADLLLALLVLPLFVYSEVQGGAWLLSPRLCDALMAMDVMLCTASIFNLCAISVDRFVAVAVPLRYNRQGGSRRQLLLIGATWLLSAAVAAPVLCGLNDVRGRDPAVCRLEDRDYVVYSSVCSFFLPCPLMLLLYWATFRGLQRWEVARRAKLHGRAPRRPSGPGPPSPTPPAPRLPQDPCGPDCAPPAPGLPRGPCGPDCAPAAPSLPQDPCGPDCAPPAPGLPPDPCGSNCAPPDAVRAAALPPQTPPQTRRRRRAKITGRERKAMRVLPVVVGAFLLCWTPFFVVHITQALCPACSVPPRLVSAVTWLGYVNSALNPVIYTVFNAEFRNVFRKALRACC
# GPR97/AGRG3 = GPR97/AGRG3 (Homo sapiens, UniProt Q86Y34); assay: GPR97 PRESTO-Tango; conditions: titrating doses of pure amino acid
# [3] = biological target: GPR56-ANT (a mutant lacking the extracellular domain) (Homo sapiens, UniProt Q9Y653); assay: PRESTO-Tango on GPR56 truncation mutant; conditions: titrating doses of L-Phe
# colon motility [4] = assay: Intestinal motility by fecal output; assay type: in vivo, C57Bl/6 mice; conditions: M. morganii colonized mice, 1% L-His in water for 2 weeks
# DRD2 [5] = biological target: T1, DRD2; conditions: for phenethylamine as measured by DRD2 activation by cecal and colonic extracts: L-Phe deficient diet, MAOI
# colon motility [6] = conditions: rodents; cited from earlier work
# T1 sequence (P14416 whole entry): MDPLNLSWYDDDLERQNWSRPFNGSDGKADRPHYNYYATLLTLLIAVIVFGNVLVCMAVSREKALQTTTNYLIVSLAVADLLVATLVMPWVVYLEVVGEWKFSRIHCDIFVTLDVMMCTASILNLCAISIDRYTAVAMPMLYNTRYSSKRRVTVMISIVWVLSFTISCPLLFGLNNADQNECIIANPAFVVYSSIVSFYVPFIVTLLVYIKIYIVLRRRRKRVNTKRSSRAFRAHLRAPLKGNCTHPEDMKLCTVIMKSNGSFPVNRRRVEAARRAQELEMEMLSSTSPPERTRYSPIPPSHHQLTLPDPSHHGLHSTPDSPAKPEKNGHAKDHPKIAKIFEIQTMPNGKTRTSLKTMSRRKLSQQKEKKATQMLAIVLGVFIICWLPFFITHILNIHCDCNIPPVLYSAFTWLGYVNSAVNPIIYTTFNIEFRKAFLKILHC
# GPR56/AGRG1, sequence (Q9Y653 26-693): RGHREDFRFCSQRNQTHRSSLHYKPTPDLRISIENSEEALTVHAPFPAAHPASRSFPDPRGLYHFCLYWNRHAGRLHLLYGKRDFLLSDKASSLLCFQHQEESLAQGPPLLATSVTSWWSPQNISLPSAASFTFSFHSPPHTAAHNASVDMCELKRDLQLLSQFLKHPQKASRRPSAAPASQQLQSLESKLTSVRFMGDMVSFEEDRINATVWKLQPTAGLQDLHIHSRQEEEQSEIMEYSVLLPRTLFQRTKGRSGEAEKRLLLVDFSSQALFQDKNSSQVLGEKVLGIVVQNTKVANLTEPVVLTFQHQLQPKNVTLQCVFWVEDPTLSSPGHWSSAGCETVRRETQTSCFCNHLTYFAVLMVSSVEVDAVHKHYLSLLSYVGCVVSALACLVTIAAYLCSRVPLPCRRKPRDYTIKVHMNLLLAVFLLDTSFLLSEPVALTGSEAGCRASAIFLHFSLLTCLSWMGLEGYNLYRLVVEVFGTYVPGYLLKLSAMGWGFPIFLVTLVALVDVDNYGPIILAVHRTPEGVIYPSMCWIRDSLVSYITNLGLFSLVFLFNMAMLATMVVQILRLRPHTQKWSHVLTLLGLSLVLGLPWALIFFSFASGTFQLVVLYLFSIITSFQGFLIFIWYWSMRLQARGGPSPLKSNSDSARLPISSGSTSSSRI
# DRD3, sequence (P35462 whole entry): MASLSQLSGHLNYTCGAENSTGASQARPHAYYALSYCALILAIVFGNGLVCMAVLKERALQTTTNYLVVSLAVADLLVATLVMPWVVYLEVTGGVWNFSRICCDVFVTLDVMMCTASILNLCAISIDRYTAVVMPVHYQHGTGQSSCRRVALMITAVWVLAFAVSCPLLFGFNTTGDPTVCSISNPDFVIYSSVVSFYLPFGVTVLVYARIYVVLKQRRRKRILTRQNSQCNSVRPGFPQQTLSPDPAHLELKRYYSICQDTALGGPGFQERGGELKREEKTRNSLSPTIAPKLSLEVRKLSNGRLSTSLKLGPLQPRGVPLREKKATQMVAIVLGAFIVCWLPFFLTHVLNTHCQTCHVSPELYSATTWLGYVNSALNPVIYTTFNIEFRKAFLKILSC
# GPR56-ANT (a mutant lacking the extracellular domain), sequence (Q9Y653 383-693 limits assumed, change not shown): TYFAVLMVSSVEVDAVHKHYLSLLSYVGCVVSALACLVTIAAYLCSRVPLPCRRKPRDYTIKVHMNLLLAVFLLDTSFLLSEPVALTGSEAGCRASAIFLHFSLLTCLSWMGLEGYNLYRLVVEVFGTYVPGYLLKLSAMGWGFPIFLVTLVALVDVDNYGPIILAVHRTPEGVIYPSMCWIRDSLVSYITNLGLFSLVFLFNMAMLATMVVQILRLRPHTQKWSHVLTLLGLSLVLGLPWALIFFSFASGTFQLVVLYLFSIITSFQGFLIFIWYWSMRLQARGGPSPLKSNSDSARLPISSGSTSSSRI
# GPR97/AGRG3, sequence (Q86Y34 21-549): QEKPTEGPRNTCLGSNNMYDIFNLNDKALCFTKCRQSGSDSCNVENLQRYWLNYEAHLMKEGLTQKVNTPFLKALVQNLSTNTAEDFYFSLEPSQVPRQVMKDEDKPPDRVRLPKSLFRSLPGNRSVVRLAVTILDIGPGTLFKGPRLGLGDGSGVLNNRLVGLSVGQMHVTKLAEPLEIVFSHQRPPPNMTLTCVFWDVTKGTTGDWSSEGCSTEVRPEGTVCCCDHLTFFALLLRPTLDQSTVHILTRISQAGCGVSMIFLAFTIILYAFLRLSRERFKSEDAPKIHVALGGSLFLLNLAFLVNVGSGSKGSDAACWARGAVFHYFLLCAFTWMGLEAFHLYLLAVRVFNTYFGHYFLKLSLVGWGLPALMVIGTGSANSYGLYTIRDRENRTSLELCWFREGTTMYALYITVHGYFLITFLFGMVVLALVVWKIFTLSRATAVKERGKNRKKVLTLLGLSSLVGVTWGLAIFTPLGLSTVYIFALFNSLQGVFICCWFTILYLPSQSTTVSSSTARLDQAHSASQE
smiles,measurement,setting,value
"N[C@@H](Cc1c[nH]c2ccccc12)C(=O)O [L-Trp, L-tryptophan]",activation of GPR56/AGRG1,GPR56/AGRG1,no activity
N[C@H](Cc1c[nH]c2ccccc12)C(=O)O [D-Trp],activation of GPR56/AGRG1,GPR56/AGRG1,no activity
N[C@H](Cc1ccccc1)C(=O)O [D-Phe],activation of GPR56/AGRG1,GPR56/AGRG1,no activity
"NCCc1ccccc1 [phenethylamine, Phenethylamine]",activation of DRD3,DRD3,selective DRD2/DRD3/DRD4 agonists
same,crossing of the blood-brain barrier,[1],can readily cross
same,activation of DRD2,DRD2 [2],selective DRD2/DRD3/DRD4 agonists
same,activation of DRD4,DRD4,selective DRD2/DRD3/DRD4 agonists
N[C@H](Cc1c[nH]cn1)C(=O)O [D-His],activation of GPR56/AGRG1,GPR56/AGRG1,no activity
"N[C@@H](Cc1ccccc1)C(=O)O [L-Phe, L-phenylalanine]",activation of GPR56/AGRG1,GPR56/AGRG1,stereoselectively activated
same,activation of GPR97/AGRG3,GPR97/AGRG3,activated
same,response of GPR56/AGRG1 truncation mutant lacking the extracellular domain,[3],failed to respond
"N[C@@H](Cc1c[nH]cn1)C(=O)O [L-His, L-histidine]",fecal output upon supplementation with L-His,colon motility [4],further increased
same,activation of GPR56/AGRG1,GPR56/AGRG1,no activity
NNCCc1ccccc1 [phenelzine],onset of lethargy after MAOI treatment,"C57Bl/6, mouse, in vivo",≤ 4 days
same,mortality after treatment with MAOI,"mice colonized with M. morganii, died before the seventh day of treatment",more than half
same,health after MAOI treatment,"mouse, in vivo",remained healthy
same,health after treatment with MAOI,"mouse, in vivo",appeared healthy
same,morbidity after treatment with MAOI,"mouse, in vivo",lethargic within days
same,DRD2 activation by cecal and colonic contents and serum,DRD2 [5]; MAOI-treated M. morganii colonized mice,activated DRD2
same,phenethylamine as measured by DRD2 activation by cecal and colonic extracts,DRD2 [5]; mice bi-colonized with C34 and M. morganii,significant levels of phenethylamine
same,phenethylamine as measured by DRD2 activation by cecal and colonic extracts,DRD2 [5]; mice colonized with M. morganii alone,minimal phenethylamine
"NCCc1ccc(O)c(O)c1 [dopamine, Dopamine]",activation of DRD2,DRD2 [2],efficiently activated
N[C@H](Cc1ccc(O)cc1)C(=O)O [D-Tyr],activation of GPR56/AGRG1,GPR56/AGRG1,no activity
"NCCc1c[nH]cn1 [histamine, Histamine]",effect of oral gavage on colon motility,colon motility [6],increase colon motility
"NCCc1ccc(O)cc1 [tyramine, Tyramine]",activation of DRD3,DRD3,selective DRD2/DRD3/DRD4 agonists
same,activation of DRD2,DRD2 [2],selective DRD2/DRD3/DRD4 agonists
same,activation of DRD4,DRD4,selective DRD2/DRD3/DRD4 agonists
